Source: patent US7276531B2, “G-lactam derivatives as prostaglandin agonists” (Applied Research Systems ARS Holding N.V., priority 2003, dated 2007)

Assays:
[1] = test system: methacholine-induced bronchoconstriction; test: In vivo inhibition of guinea pig broncho-constriction (methacholine-induced); details: Cavia porcellus, IT (intra-tracheal) route, read-out: calculated effective dose (ED50), bronchoconstriction
Description: The activity of compounds of the invention in dilation of bronchiolar muscles, may be tested in different models. Guinea pig pulmonary-cholinergic in vivo model is generally used to test the materials for the treatments of asthma in human (Fleisch et al., 1985) Compounds of the invention can be tested in this methacholine-induced bronchomuscle constriction model as described below.
Groups of 3 Duncan Hartley derived male or female guinea pigs weighing 250±50 g are anesthetized with pentobarbital sodium (50 mg/kg i.p., plus an additional 15 mg/kg i.p. if required) and succinylcholine chloride (2 mg/animal i.p.) is subsequently administered to prevent spontaneous respiration. Body temperature is maintained at 37° to 38° C.
The trachea is cannulated and the guinea pig is ventilated with a Harvard rodent respirator in a closed system. Tracheal pressure is recorded through a side-arm of the cannula connected to a P23ID Statham transducer. […] Mean arterial pressure (BP) is monitored from a cannulated carotid artery, and heart rate (HR) is obtained from chest electrodes arranged for lead II. […]
Compounds of the invention are also tested via intra-tracheal (IT) route of administration. […] Tracheal pressure (ITP), blood pressure and heart rate are measured immediately as indicated in the material and methods sections. […]

[2] = test system: LPS-induced TNFα release; test: In vivo inhibition of LPS-induced TNFα release in mice; details: LPS 0.3 mg/kg i.p.
Protocol: The anti-inflammatory activity of compounds of the invention may be assessed after a LPS challenge using the following protocol:
Eight weeks old C3H/H mice (IFFA-CREDO, L'arbresle, France) receive an oral treatment with compounds of the invention 6 different doses (0.001, 0.01, 0.1, 1 or 3 and 10 mg/kg in 0.5% CMC/0.25% tween-20). Six mice are used by group. Fifteen minutes later, endotoxins (O111:B4 Sigma, 0.3 mg/kg) are intraperitoneally injected. Heparinized whole blood is collected by decapitation. TNFα level is determined in plasma by ELISA (R & D Systems, Abdingdon, UK). Control animals receive 0.5% CMC/0.25% tween-20 (10 ml/kg) as vehicle. Data obtained from experiments are expressed as the mean±SEM and analysed using one-way analysis of variance (ANOVA) followed by Dunnett's t-test.

SMILES: CCCC/C(C)=C/C=C\[C@H]1CCC(=O)N1CCc1ccc(C(=O)O)cc1 [Example 3, 4-(2-{(2R)-2-[(1Z,3E)-4-methylocta-1,3-dienyl]-5-oxopyrrolidin-1-yl}ethyl)benzoic acid]
- ED50 [1]: 0.2 mg/kg
- % of Inhibition of TNF Release Mean ± SEM ([2]; oral dose 0.001 mg/kg): 41 ± 5%
- % of Inhibition of TNF Release Mean ± SEM ([2]; oral dose 0.01 mg/kg): 43 ± 7%
- % of Inhibition of TNF Release Mean ± SEM ([2]; oral dose 0.1 mg/kg): 63 ± 3%
- % of Inhibition of TNF Release Mean ± SEM ([2]; oral dose 1 mg/kg): 68 ± 3%
- % of Inhibition of TNF Release Mean ± SEM ([2]; oral dose 10 mg/kg): 83 ± 3%
